The term inhibition denotes the drop in the measured response relative to a control, in per cent. As a reminder, the IC50 is the point on the concentration scale where inhibition reaches its midpoint.

Where two headings read alike, the source gives them in different places.

The test system of experiment [1] is PF-4840154-induced mechanical hyperalgesia in rats. As to the kind of experiment: Agonist (PF-4840154)-induced mechanical hyperalgesia in rats. To be noted: Rattus norvegicus, 30 μmol/kg oral, PF-4840154 0.05 nmol/50 μl/paw intraplantar. The experiment is classed as in vivo. The source says:
Agonist (PF-4840154)-Induced Mechanical Hyperalgesia in Rats
The method is used to investigate the anti-hyperalgesic effects of the compounds listed in the present invention following agonist (PF-4840154)-induced hyperalgesic responses. The activity is indicative of TRPA1 receptor occupancy following oral dosing. Specifically, male SD rats (Charles River, Italy) weighing 70-100 g. were used. The anti-hyperalgesic effects were investigated using the electronic dynamometer test. PF-4840154 (Sigma, USA) was used to induce mechanical hyperalgesia. Local, intraplantar injection of PF-4840154 at 0.05 nmol/50 μl/paw caused the reduction of the hind paw withdrawal response induced by mechanical stimuli. Mechanical stimulation was induced in basal condition and 30, 60, 120, 180 and 240 minutes after the oral administration of the antagonists dissolved in 2.5% DMSO and 30% Solutol. Compounds were orally administered (30 μmol/kg/10 ml) to rats 1 hour before the injection of PF-4840154 into the plantar surface of a rat's hind using a micro syringe.

The target in experiment [2] is T1, native human TRPA1 receptors (Homo sapiens, UniProt O75762).
T1 construct: stably expressing native human TRPA1 receptors were used; endogenous in cells; host or cells: A549 human lung adenocarcinoma epithelial cell line
T1 sequence (O75762 whole entry): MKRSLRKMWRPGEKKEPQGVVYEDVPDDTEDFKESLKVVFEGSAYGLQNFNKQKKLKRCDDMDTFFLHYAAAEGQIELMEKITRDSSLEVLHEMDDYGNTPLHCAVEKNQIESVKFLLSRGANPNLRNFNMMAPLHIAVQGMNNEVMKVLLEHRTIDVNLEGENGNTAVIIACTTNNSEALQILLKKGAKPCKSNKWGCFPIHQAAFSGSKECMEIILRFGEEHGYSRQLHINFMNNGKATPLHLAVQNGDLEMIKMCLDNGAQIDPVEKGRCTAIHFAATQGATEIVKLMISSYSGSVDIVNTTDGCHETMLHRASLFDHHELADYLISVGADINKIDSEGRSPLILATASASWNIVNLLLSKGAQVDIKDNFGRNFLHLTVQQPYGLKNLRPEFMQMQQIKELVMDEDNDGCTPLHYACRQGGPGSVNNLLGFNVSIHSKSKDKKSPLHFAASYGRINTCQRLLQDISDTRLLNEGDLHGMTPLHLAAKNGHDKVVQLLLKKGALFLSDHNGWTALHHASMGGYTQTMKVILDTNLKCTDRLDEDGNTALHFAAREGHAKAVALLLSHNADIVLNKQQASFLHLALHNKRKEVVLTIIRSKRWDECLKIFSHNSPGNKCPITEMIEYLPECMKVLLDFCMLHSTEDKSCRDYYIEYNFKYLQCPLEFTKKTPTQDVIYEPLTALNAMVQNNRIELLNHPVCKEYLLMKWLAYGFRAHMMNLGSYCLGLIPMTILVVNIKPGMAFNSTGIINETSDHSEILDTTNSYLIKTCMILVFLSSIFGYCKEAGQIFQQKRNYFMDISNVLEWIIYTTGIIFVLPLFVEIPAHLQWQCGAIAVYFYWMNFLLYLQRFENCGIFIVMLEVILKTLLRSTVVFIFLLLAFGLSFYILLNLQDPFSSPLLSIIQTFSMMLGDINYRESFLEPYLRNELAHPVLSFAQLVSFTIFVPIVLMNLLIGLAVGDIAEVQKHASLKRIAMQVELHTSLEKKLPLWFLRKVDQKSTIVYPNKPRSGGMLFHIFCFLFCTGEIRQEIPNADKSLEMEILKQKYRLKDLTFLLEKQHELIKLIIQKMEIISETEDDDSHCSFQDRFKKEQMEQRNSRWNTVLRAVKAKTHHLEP
As to the kind of experiment: PF-4840154 (1 μM)-induced Ca2+ fluorescence measurements in A549 cell line. The format is cell-based. Conditions: for inhibition at 10 µM: 10 μM compound against 1 μM PF-4840154, A549 cells. On the procedure: PF-4840154 (1 μM)-Induced Ca^2+ Fluorescence Measurements in A549 Cell Line
Human lung adenocarcinoma epithelial cell line (A549) stably expressing native human TRPA1 receptors were used. The cells were cultured in medium consisting of Eagle's minimal essential medium (EMEM) supplemented with 10% fetal bovine serum (FBS), penicillin (100 IU/ml), streptomycin ([…]), L-glutamine (2 mM), sodium bicarbonate (2.5 g/L) and HEPES (24 mM). Cells were kept at 37° C. in 5% CO2/humidified air. For the experiments the cells were seeded at a density of 16,000 cells/well into 96-well black, clear-bottom plates. After 24 hours incubation the cells were loaded with medium supplemented with 2.5 mM probenecid, 3 μM of the calcium sensitive fluorescent dye Fluo-4 AM and 0.01% pluronic acid, for 30 min at 37° C. Afterwards the loading solution was aspirated and 100 μl/well of assay buffer: Hank's Balanced Salt Solution (HBSS) supplemented with 2.5 mM probenecid and 500 μM Brilliant Black (Aldrich) was added. Stock solutions (100 mM) of ligands were made in Dimethyl Sulfoxide (DMSO) and stored at −20° C. Serial dilutions of ligands for experimental use were made in HBSS buffer. After placing both plates (cell culture and compound plate) into the FlexStation II (Molecular Device, Union City, Calif. 94587, US), fluorescence changes were measured. On-line additions were carried out in a volume of […]. To facilitate drug diffusion into the wells in antagonist type experiments, the studies were performed at 36.5° C. and three cycles of mixing (25 μl from each well moved up and down 3 times) were performed immediately after antagonist injection to the wells. All exemplified compounds were tested alone (to address residual agonistic activity) and against 1 μM of PF-4840154 to address inhibitory activity at the initial concentration of 10 μM. For selected examples the entire inhibitory concentration-response curves were constructed and the IC50 value calculated.
PF-4840154 (1 μM) increased [Ca^2+] in the vast majority (95%) of cultured cells which were thereby identified as TRPA1 expressing cells.

Experiment [3] concerns oxaliplatin-induced mechanical hyperalgesia in rats. As to the kind of experiment: Oxaliplatin-induced mechanical hyperalgesia in rats. The format is in vivo. To be noted: Rattus norvegicus, 168 h, 30 μmol/kg oral, 7 days post i.v. oxaliplatin 2.5 mg/kg. How it is done: Oxaliplatin-Induced Mechanical Hyperalgesia in Rats
The method described by Nassini et al. (Pain, 2011, 152(7), 1621-31) was used with minor modifications. Restrained rats were treated with a single intravenous bolus injection of oxaliplatin (2.5 mg/kg) dissolved in normal saline. This approach was sufficient to elicit reproducible allodynic behaviour evident 3 days post injection and during the day thereafter. For convenience all acute experiments were conducted 7 days post injection when compounds were orally administered at 30 μmol/kg.

[4] abbreviates: read-out: % of reversal of mechanical allodynia.
The mark [5] stands for this setting: read-out: Maximal inhibition (%).
Setting [6] is: against PF-4840154 (1 μM)-evoked [Ca2+]i mobilization, A549 cells.

In the case of `C=C(C(=O)NCc1ccnc(-c2ccc(OC(F)(F)F)cc2)c1)N(C)S(=O)(=O)c1ccc(Cl)cc1` [Example 4, 2-[(4-chlorophenyl)sulfonyl-methyl-amino]-N-[[2-[4-(trifluoromethoxy)phenyl]-4-pyridyl]methyl]prop-2-enamide], the inhibition in vivo at 30 µmol/kg in experiment [1] (setting [4]) and in experiment [1] (setting [5]) was 67% each time. Moreover, in experiment [2], the inhibition at 10 µM was determined as 98%. For the same compound, in experiment [2] (setting [6]), the IC50 was determined as 0.078 µM.

In the case of `C=C(C(=O)NCc1ccnc(-c2ccc(OC(F)(F)F)cc2)c1)N(CC)S(=O)(=O)c1ccc(Cl)cc1` [Example 5, 2-[(4-chlorophenyl)sulfonyl-ethyl-amino]-N-[[2-[4-(trifluoromethoxy)phenyl]-4-pyridyl]methyl]prop-2-enamide], the inhibition in vivo at 30 µmol/kg in experiment [1] (setting [4]) and in experiment [1] (setting [5]) was 76% each time. The compound also came in with an inhibition at 10 µM in experiment [2] of 99%. In experiment [2] (setting [6]), this compound showed a concentration for half-maximal inhibition (IC50) of 0.1 µM.

`CCN(C1(C(=O)NCc2ccnc(-c3ccc(OC(F)(F)F)cc3)c2)CC1)S(=O)(=O)c1ccc(F)cc1` [Example 26, 1-[ethyl-(4-fluorophenyl)sulfonyl-amino]-N-[[2-[4-(trifluoromethoxy)phenyl]-4-pyridyl]methyl]cyclopropanecarboxamide]: the inhibition in vivo at 30 µmol/kg in experiment [1] (setting [4]) and in experiment [1] (setting [5]) was 64% in each case. Also, the inhibition at 10 µM in experiment [2] is 100%. This compound came in with an IC50 in experiment [2] (setting [6]) of 0.151 µM.

Take `CCN(C1(C(=O)NCc2cccc(-c3ccc(C(F)(F)F)cc3)c2)CC1)S(=O)(=O)c1ccc(Cl)cc1` [Example 30, 1-[(4-chlorophenyl)sulfonyl-ethyl-amino]-N-[[3-[4-(trifluoromethyl)phenyl]phenyl]methyl]cyclopropanecarboxamide]: the inhibition in vivo at 30 µmol/kg in experiment [1] (setting [4]) and in experiment [1] (setting [5]) was 82% throughout. In addition, the inhibition at 10 µM in experiment [2] stood at 100%. This compound showed an IC50 in experiment [2] (setting [6]) of 0.1 µM.

For `CCN(C1(C(=O)NCc2cc(-c3ccc(C(F)(F)F)cc3)nc(N3CCCC3)c2)CC1)S(=O)(=O)c1ccc(Cl)s1` [Example 34, 1-[(5-chloro-2-thienyl)sulfonyl-ethyl-amino]-N-[[2-pyrrolidin-1-yl-6-[4-(trifluoromethyl)phenyl]-4-pyridyl]methyl]cyclopropanecarboxamide], the inhibition in vivo at 30 µmol/kg in experiment [3] (setting [4]) and in experiment [3] (setting [5]) was 71% each time. Also, in experiment [2], testing at 10 µM gave an inhibition of 100%. Also, the midpoint of inhibition in experiment [2] (setting [6]), the IC50, lay at 0.025 µM.

For the compound `CN(C1(C(=O)NCc2cccc(-c3ccc(OC(F)(F)F)cc3)c2)CC1)S(=O)(=O)c1ccc(F)cc1` [Example 57, 1-[(4-fluorophenyl)sulfonyl-methyl-amino]-N-[[3-[4-(trifluoromethoxy)phenyl]phenyl]methyl]cyclopropanecarboxamide], the inhibition at 10 µM in experiment [2] came to 97%. In addition, in experiment [2] (setting [6]), the IC50 came to 0.275 µM.

Regarding `CN(C1(C(=O)NCc2cccc(-c3ccc(C(F)(F)F)cc3)c2)CC1)S(=O)(=O)c1ccc(F)cc1` [Example 58, 1-[(4-fluorophenyl)sulfonyl-methyl-amino]-N-[[3-[4-(trifluoromethyl)phenyl]phenyl]methyl]cyclopropanecarboxamide], the inhibition at 10 µM in experiment [2] worked out at 100%. Besides, it took 0.16 µM to reach half-maximal inhibition in experiment [2] (setting [6]) (IC50).

The compound `CCN(C1(C(=O)NCc2cc(-c3ccc(C(F)(F)F)cc3)ccn2)CC1)S(=O)(=O)c1ccc(F)cc1` [Example 60, 1-[ethyl-(4-fluorophenyl)sulfonyl-amino]-N-[[4-[4-(trifluoromethyl)phenyl]-2-pyridyl]methyl]cyclopropanecarboxamide] registered an inhibition at 10 µM in experiment [2] of 100%. This compound also showed an IC50 in experiment [2] (setting [6]) of 0.423 µM.

For the compound `CCN(C1(C(=O)NCc2cc(-c3ccc(OC(F)(F)F)cc3)nc(N3CCCC3)c2)CC1)S(=O)(=O)c1ccc(F)cc1` [Example 61, 1-[ethyl-(4-fluorophenyl)sulfonyl-amino]-N-[[2-pyrrolidin-1-yl-6-[4-(trifluoromethoxy)phenyl]-4-pyridyl]methyl]cyclopropanecarboxamide], in experiment [2], at 10 µM the inhibition was 95%. In experiment [2] (setting [6]), the 50% inhibitory concentration (IC50) was 0.784 µM.

With `CCN(C1(C(=O)NCc2cc(-c3ccc(C(F)(F)F)cc3)nc(N3CCOCC3)c2)CC1)S(=O)(=O)c1ccc(F)cc1` [Example 62, 1-[ethyl-(4-fluorophenyl)sulfonyl-amino]-N-[[2-morpholino-6-[4-(trifluoromethyl)phenyl]-4-pyridyl]methyl] cyclopropanecarboxamide], in experiment [2], at 10 µM the inhibition was 100%. This compound yielded an IC50 in experiment [2] (setting [6]) of 0.66 µM.

Compound `C=C(C(=O)NCc1cc(-c2ccc(OC(F)(F)F)cc2)nc(N2CCN(CC3CC3)CC2)c1)N(CC)S(=O)(=O)c1ccc(F)cc1` [Example 63, N-[[2-[4-(cyclopropylmethyl)piperazin-1-yl]-6-[4-(trifluoromethoxy)phenyl]-4-pyridyl]methyl]-2-[ethyl-(4-fluorophenyl)sulfonyl-amino]prop-2-enamide] registered an inhibition at 10 µM in experiment [2] of 99%. For the same compound, in experiment [2] (setting [6]), half-maximal inhibition (IC50) required 0.175 µM.

`CCN(C1(C(=O)NCc2cc(-c3ccc(C(F)(F)F)cc3)nc(N3CCN(CC4CC4)CC3)c2)CC1)S(=O)(=O)c1ccc(F)cc1` [Example 64, N-[[2-[4-(cyclopropylmethyl)piperazin-1-yl]-6-[4-(trifluoromethyl)phenyl]-4-pyridyl]methyl]-1-[ethyl-(4-fluorophenyl)sulfonyl-amino]cyclopropanecarboxamide]: testing at 10 µM in experiment [2] gave an inhibition of 99%. For the same compound, the IC50 in experiment [2] (setting [6]) came out at 0.338 µM.

Turning to `CCN(C1(C(=O)NCc2cc(-c3ccc(C(F)(F)F)cc3)nc(N3CCN(CC4CC4)CC3)c2)CC1)S(=O)(=O)c1ccc(Cl)s1` [Example 65, 1-[(5-chloro-2-thienyl)sulfonyl-ethyl-amino]-N-[[2-[4-(cyclopropylmethyl)piperazin-1-yl]-6-[4-(trifluoromethyl)phenyl]-4-pyridyl]methyl]cyclopropanecarboxamide], the inhibition at 10 µM in experiment [2] stood at 100%. The compound also showed a half-inhibitory concentration (IC50) in experiment [2] (setting [6]) of 0.327 µM.

In the case of `CCN(C1(C(=O)NCc2cc(-c3ccc(C(F)(F)F)cc3)nc(N3CCN(C4CCCCC4)CC3)c2)CC1)S(=O)(=O)c1ccc(F)cc1` [Example 66, N-[[2-(4-cyclohexylpiperazin-1-yl)-6-[4-(trifluoromethyl)phenyl]-4-pyridyl]methyl]-1-[ethyl-(4-fluorophenyl)sulfonyl-amino]cyclopropanecarboxamide], the inhibition at 10 µM in experiment [2] was 93%. The IC50 in experiment [2] (against PF-4840154 (1 μM), A549 cells, cells printed in μM) is 1.5 µM.

In experiment [2], `CCN(C1(C(=O)NCc2cc(-c3ccc(C(F)(F)F)cc3)nc(N3CCN(C4CCCCC4)CC3)c2)CC1)S(=O)(=O)c1ccc(Cl)s1` [Example 67, 1-[(5-chloro-2-thienyl)sulfonyl-ethyl-amino]-N-[[2-(4-cyclohexylpiperazin-1-yl)-6-[4-(trifluoromethyl)phenyl]-4-pyridyl]methyl]cyclopropanecarboxamide] registered an inhibition at 10 µM of 95%. In addition, the IC50 in experiment [2] (setting [6]) is 0.59 µM.

Turning to `CC(C)CNc1nc(N2CCN(CC3CCCOC3)CC2)ncc1C(=O)NCc1ccccc1` (centres unmarked) [PF-4840154, reference compound], the “cultured cells with increased [Ca2+]” value in experiment [2] (PF-4840154 1 μM, A549 cells) was 95%.

These data come from patent US9409864B2, “Sulfonamide TRPA1 receptor antagonists” (ARIO PHARMA LIMITED, priority 2013, dated 2016).
